# Reference: article PMC2362735, “New semisynthetic vinca alkaloids: chemical, biochemical and cellular studies” (British Journal of Cancer, 1999)
# Where two headings read alike, the source gives them in different places.
# Columns and labels:
# [1] = system: Mouse Ehrlich ascites tumour cells; assay: In vivo anti-tumour effect on Ehrlich ascites carcinoma, single i.p. dose 4 days after transplantation
# Excerpt: (§1) The numerous antimitotic drugs already developed and therapeu- tically used for a large number of pathologies belong to different classes based on their chemical structure and other distinctive features. Antimitotic drugs usually target the tubulin/microtubule network of the cytoskeleton that is formed by assembly of cyto- plasmic tubulin dimers. The stability of the different microtubular structures varies considerably; some of their functions depend on their lability. The lability is augmented by the extreme sensitivity to various drugs. Several synthetic and natural compounds interact specifically with tubulin and/or microtubule, fundamentally destroying its dynamic character and leading to cell death. […] Because of their extensive clinical use, it is important to synthesize additional agents having at least the same biological activity. […] Nevertheless, it is unclear yet how the anti-calmodulin activity of these drugs is related to their desired and undesired pharmacological effects. […] The synthesis of the KAR derivatives are presented. […] Taxol, GTP and trifluoperazine were purchased from Sigma. All organic reagents for synthesis of the new compounds were obtained from Aldrich and were of the highest grade. All other chemicals were reagent grade commercial preparations. […] Tubulin was stored in 1 M sucrose, 10 mM sodium phosphate buffer, 0.5 mM magnesium chloride and 0.1 mM GTP, pH 7.0, at -80C and dialysed against the appropriate buffer before use. […] PFK, aldolase and glycerol-3-phosphate dehydrogenase- triosephosphate isomerase purified from rabbit skeletal muscle were purchased in ammonium sulphate suspensions from Sigma or Boehringer. The enzyme suspensions were centrifuged at 10 000g for 5 min. The pellets were suspended in the appropriate buffer, then the enzymes were gel filtered or dialysed in the same buffer to remove ammonium sulphate. […] (Figure 1B; R1 , CH3; R2 , CH2 CH2 Cl). […] After 2 h incubation at room temperature, 200 ml dried toluene was added to the reaction mixture. […] The mixture was stirred for 30 min. After separation of the organic phase, it was washed with water (3 x 30 ml) and dried with potassium sulphate and evaporated on a water bath of 35-40C at 20-27 hPa. The resulting material was chromatographed on silica gel (500 g, bead size of 0.040- 0.063 mm) column (30 mm x 500 mm) using ethyl acetate/ethanol (9:1) mixture as eluent. […] The mixture was kept for 4 h at room temperature and then evaporated on a water bath at 40C under a vacuum of 80 hPa to a final volume of 5-6 ml. […] (Figure 1B, R1 , CHO; R2 , CH2 CH2 Cl). […] Synthesis of KAR-4 [3-allyl-2,4-dioxo-3,5-spiro-oxazolidino- 4-deacetoxy-vinblastine] (Figure 1B; R1 , CH3; R2 , CH2 CH=CH2 ). […] NMR measurements were carried out on a Varian Unity plus-500 instrument (500 MHz for 1H and 125 MHz for 13C) in DMSO. Chemical shifts were determined relative to dTMS = 0.00 p.p.m. 1H and 13C signal assignments were verified by a concerted use of two-dimensional 1H-1H and 1H-13C shift correlation methods (DQFCOSY, HSQC, HMBC) and NOESY experiments. The gradient-enhanced DQFCOSY, HSQC, HMBC and NOESY experiments were recorded by using the standard spectrometer software package. A mixing time of tmix = 0.5 s was used for the NOESY experiments.
# [2] = system: Mouse leukaemia P388 cells; assay: In vivo anti-tumour effect on P388 mouse leukaemia, single i.p. dose; details: for Dose (mg kg-1) giving the maximal effect: P388, single doses i.p.; for Maximal effect T/C (%): P388, single doses i.p. 24 h after transplantation, median survival treated/control x 100, six animals per group
# Excerpt: as §1
# calmodulin = target: T1, calmodulin (Bos taurus, UniProt P62157); assay: Anti-calmodulin activity assay: calmodulin-induced PFK inactivation; type: biochemical, bovine; details: drug 20 M; for Effect on calmodulin induced PFK inactivation: Activity (U mg-1): PFK 1.2 M protomers, calmodulin 3 M, 60 min, without calmodulin 66.6 U mg-1, with calmodulin 8.0 U mg-1; for Anti-calmodulin activity: Efficiency (%): calculated from the activity data (100% = PFK without calmodulin, 0% = PFK with calmodulin)
# T1 construct: Calmodulin from bovine brain was purified to homogeneity using Phenyl-Sepharose (Pharmacia) chromatography; from tissue; host or cells: bovine brain
# Excerpt: The numerous antimitotic drugs already developed and therapeu- tically used for a large number of pathologies belong to different classes based on their chemical structure and other distinctive features. Antimitotic drugs usually target the tubulin/microtubule network of the cytoskeleton that is formed by assembly of cyto- plasmic tubulin dimers. The stability of the different microtubular structures varies considerably; some of their functions depend on their lability. The lability is augmented by the extreme sensitivity to various drugs. Several synthetic and natural compounds interact specifically with tubulin and/or microtubule, fundamentally destroying its dynamic character and leading to cell death. […] Because of their extensive clinical use, it is important to synthesize additional agents having at least the same biological activity. […] Nevertheless, it is unclear yet how the anti-calmodulin activity of these drugs is related to their desired and undesired pharmacological effects. […] The synthesis of the KAR derivatives are presented. […] Taxol, GTP and trifluoperazine were purchased from Sigma. All organic reagents for synthesis of the new compounds were obtained from Aldrich and were of the highest grade. All other chemicals were reagent grade commercial preparations. […] Tubulin was stored in 1 M sucrose, 10 mM sodium phosphate buffer, 0.5 mM magnesium chloride and 0.1 mM GTP, pH 7.0, at -80C and dialysed against the appropriate buffer before use. […] PFK, aldolase and glycerol-3-phosphate dehydrogenase- triosephosphate isomerase purified from rabbit skeletal muscle were purchased in ammonium sulphate suspensions from Sigma or Boehringer. The enzyme suspensions were centrifuged at 10 000g for 5 min. The pellets were suspended in the appropriate buffer, then the enzymes were gel filtered or dialysed in the same buffer to remove ammonium sulphate. […] (Figure 1B; R1 , CH3; R2 , CH2 CH2 Cl). […] After 2 h incubation at room temperature, 200 ml dried toluene was added to the reaction mixture. […] The mixture was stirred for 30 min. After separation of the organic phase, it was washed with water (3 x 30 ml) and dried with potassium sulphate and evaporated on a water bath of 35-40C at 20-27 hPa. The resulting material was chromatographed on silica gel (500 g, bead size of 0.040- 0.063 mm) column (30 mm x 500 mm) using ethyl acetate/ethanol (9:1) mixture as eluent. […] The mixture was kept for 4 h at room temperature and then evaporated on a water bath at 40C under a vacuum of 80 hPa to a final volume of 5-6 ml. […] (Figure 1B, R1 , CHO; R2 , CH2 CH2 Cl). […] Synthesis of KAR-4 [3-allyl-2,4-dioxo-3,5-spiro-oxazolidino- 4-deacetoxy-vinblastine] (Figure 1B; R1 , CH3; R2 , CH2 CH=CH2 ). […] NMR measurements were carried out on a Varian Unity plus-500 instrument (500 MHz for 1H and 125 MHz for 13C) in DMSO. Chemical shifts were determined relative to dTMS = 0.00 p.p.m. 1H and 13C signal assignments were verified by a concerted use of two-dimensional 1H-1H and 1H-13C shift correlation methods (DQFCOSY, HSQC, HMBC) and NOESY experiments. The gradient-enhanced DQFCOSY, HSQC, HMBC and NOESY experiments were recorded by using the standard spectrometer software package. A mixing time of tmix = 0.5 s was used for the NOESY experiments. […] Mass spectrum was recorded on a Kratos MS 80 instrument using FAB.
# tubulin = assay: Taxol-induced tubulin polymerization, turbidity at 350 nm; type: biochemical, calf; details: taxol-induced assembly, MES buffer pH 6.8, 37C; average of three independent measurements; read-out: Anti-tubulin effect, turbidity at 350 nm, IC50
# Excerpt: as §1
# [3] = system: Human neuroblastoma cell line (SH-SY5Y); assay: Microculture tetrazolium assay (MTA), cytotoxicity
# Excerpt: as §1
# [4] = system: Mouse leukaemia P388 cells; design: method as in Orosz et al (1997a); details: P388, single doses i.p.; data published also in ref Orosz et al (1997a); cited from earlier work
# [5] = target: Phosphofructokinase [ATP: D-fructose 6-phosphate 1-phospho-transferase, EC 2.7.1.11] from rabbit skeletal muscle (rabbit) (UniProt P00511)
# Chain of Phosphofructokinase [ATP: D-fructose 6-phosphate 1-phospho-transferase, EC 2.7.1.11] from rabbit skeletal muscle (rabbit) (P00511 whole entry): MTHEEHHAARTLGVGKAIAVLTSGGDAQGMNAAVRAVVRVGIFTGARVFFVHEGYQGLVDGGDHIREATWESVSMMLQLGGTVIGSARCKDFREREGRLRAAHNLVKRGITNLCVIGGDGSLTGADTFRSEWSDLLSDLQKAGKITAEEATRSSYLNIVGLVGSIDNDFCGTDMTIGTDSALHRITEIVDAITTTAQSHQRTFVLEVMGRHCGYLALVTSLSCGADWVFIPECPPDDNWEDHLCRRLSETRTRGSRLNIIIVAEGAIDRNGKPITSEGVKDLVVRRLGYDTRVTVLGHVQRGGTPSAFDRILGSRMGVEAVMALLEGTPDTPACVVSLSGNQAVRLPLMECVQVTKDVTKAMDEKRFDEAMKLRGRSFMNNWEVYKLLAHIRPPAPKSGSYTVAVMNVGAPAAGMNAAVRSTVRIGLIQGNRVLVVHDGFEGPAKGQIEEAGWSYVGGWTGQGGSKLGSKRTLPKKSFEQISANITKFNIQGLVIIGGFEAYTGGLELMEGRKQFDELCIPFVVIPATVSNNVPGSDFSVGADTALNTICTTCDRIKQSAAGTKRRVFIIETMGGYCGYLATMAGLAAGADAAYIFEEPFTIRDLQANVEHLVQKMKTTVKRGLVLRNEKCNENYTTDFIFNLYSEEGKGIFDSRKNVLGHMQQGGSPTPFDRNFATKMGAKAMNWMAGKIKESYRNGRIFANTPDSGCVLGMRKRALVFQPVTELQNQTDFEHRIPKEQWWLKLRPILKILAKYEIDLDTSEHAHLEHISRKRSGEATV
# [6] = Table 2A, 40 mg kg-1 single dose i.p.
# [7] = Table 2A, 40 mg kg-1 single dose i.p., sacrifice 8 days after implantation, control 5.33 ml
# [8] = read-out: Cytotoxicity MTA IC50, 4-day treatment, MTT
# [9] = Table 2B, 2 mg kg-1 single dose i.p.
# [10] = Table 2B, 5 mg kg-1 single dose i.p.
# [11] = Table 2B, 10 mg kg-1 single dose i.p.
molecule,measurement,setting,value
"CCC1(O)CC2CN(CCc3c([nH]c4ccccc34)C(C(=O)OC)(c3cc4c(cc3OC)N(C=O)C3C5(CC6(CC)C=CCN7CCC43C76)OC(=O)N(CCCl)C5=O)C2)C1 (centres unmarked) [KAR-3, 3-(-chloroethyl)-2,4-dioxo-3,5-spiro-oxazolidino-4-deacetoxy-vincristine]",Cells ml-1 (per cent of control),[1]; [6],57 per cent of control
same,Total cells (per cent of control),[1]; [6],32 per cent of control
same,Volume of tumour per mouse,[1]; [7],3.00 mL
same,Dose (mg kg-1) giving the maximal effect,[2],20 mg/kg
same,Maximal effect T/C (%),[2],187%
same,Effect on calmodulin induced PFK inactivation: Activity (U mg-1),calmodulin,34.4 U mg-1
same,anti-calmodulin activity in the PFK assay (in words),calmodulin,significant anti-calmodulin potency
same,reduction of the calmodulin-mediated inactivation of PFK,calmodulin,about 50%
same,Anti-calmodulin activity: Efficiency (%),calmodulin,45%
same,IC50,tubulin,136 nM
same,IC50,[3]; [8],3.1e-07 M
"C=CCN1C(=O)O[C@@]2(C[C@]3(CC)C=CCN4CC[C@@]5(c6cc([C@@]7(C(=O)OC)C[C@@H]8CN(CCc9c7[nH]c7ccccc97)C[C@](O)(CC)C8)c(OC)cc6N(C)[C@H]52)[C@@H]43)C1=O [KAR-4, 3-allyl-2,4-dioxo-3,5-spiro-oxazolidino-4-deacetoxy-vinblastine]",Cells ml-1 (per cent of control),[1]; [6],90 per cent of control
same,Total cells (per cent of control),[1]; [6],57 per cent of control
same,Volume of tumour per mouse,[1]; [7],3.33 mL
same,Dose (mg kg-1) giving the maximal effect,[2],40 mg/kg
same,Maximal effect T/C (%),[2],214%
same,Effect on calmodulin induced PFK inactivation: Activity (U mg-1),calmodulin,10.9 U mg-1
same,anti-calmodulin activity in the PFK assay (in words),calmodulin,does not display anti-calmodulin activity
same,Anti-calmodulin activity: Efficiency (%),calmodulin,5%
same,IC50,tubulin,185 nM
same,IC50,[3]; [8],3.5e-07 M
"CC[C@]1(O)C[C@H]2CN(CCc3c([nH]c4ccccc34)[C@@](C(=O)OC)(c3cc4c(cc3OC)N(C=O)[C@H]3[C@@](O)(C(=O)OC)[C@H](OC(C)=O)[C@]5(CC)C=CCN6CC[C@]43[C@@H]65)C2)C1 [Vincristine, vincristine, reference compound]",mortality of treated animals,"[1]; 15 mg kg-1 (highest dose) single dose i.p., three mice per group",death of two of the three treated animals
same,Total cells (per cent of control),"[1]; Table 2B, 1 mg kg-1 single dose i.p.",57 per cent of control
same,Volume of tumour per mouse,"[1]; Table 2B, 1 mg kg-1 single dose i.p., control 2.67 ml",2.00 mL
same,Cells ml-1 (per cent of control),[1]; [9],106 per cent of control
same,Total cells (per cent of control),[1]; [9],60 per cent of control
same,Volume of tumour per mouse,"[1]; Table 2B, 2 mg kg-1 single dose i.p., control 2.67 ml",1.50 mL
same,Cells ml-1 (per cent of control),[1]; [10],225 per cent of control
same,Total cells (per cent of control),[1]; [10],54 per cent of control
same,Volume of tumour per mouse,"[1]; Table 2B, 5 mg kg-1 single dose i.p., control 2.67 ml",0.64 mL
same,Cells ml-1 (per cent of control),[1]; [11],224 per cent of control
same,Total cells (per cent of control),[1]; [11],45 per cent of control
same,Volume of tumour per mouse,"[1]; Table 2B, 10 mg kg-1 single dose i.p., control 2.67 ml",0.53 mL
same,maximum dose that did not result in the death of the animals,"[1]; single dose i.p., Ehrlich ascites mice",10 mg/kg
same,Dose (mg kg-1) giving the maximal effect,[4],1 mg/kg
same,IC50,tubulin,290 nM
same,IC50,"[3]; Homo sapiens, 96 h, read-out: Cytotoxicity MTA IC50",1.3e-08 M
same,IC50,"[3]; Homo sapiens, 96 h, read-out: Cytotoxicity MTA IC50 (M)",1.3e-08 M
Calmodulin from bovine brain (from UniProt P62157 1-149) (natural protein),PFK activity after 60 min incubation with calmodulin and KAR-2 (calmodulin induced PFK inactivation),[5],11.1 U mg-1
same,PFK activity after 60 min incubation with calmodulin and KAR-3 (calmodulin induced PFK inactivation),[5],34.4 U mg-1
same,PFK activity after 60 min incubation with calmodulin and KAR-4 (calmodulin induced PFK inactivation),[5],10.9 U mg-1
same,PFK activity after 60 min incubation with calmodulin and trifluoperazine (calmodulin induced PFK inactivation),[5],46.1 U mg-1
same,efficiency of KAR-2 in suspending the calmodulin induced PFK inactivation,[5],5%
same,efficiency of KAR-3 in suspending the calmodulin induced PFK inactivation,[5],45%
same,efficiency of KAR-4 in suspending the calmodulin induced PFK inactivation,[5],5%
same,efficiency of trifluoperazine in suspending the calmodulin induced PFK inactivation,[5],65%
same,"residual PFK activity after 60 min incubation with calmodulin, no drug (66.6 U mg-1 without calmodulin)",[5],8 U mg-1
